Source: patent publication US8624034B2, “Fluoro-pyridinone derivatives useful as antibacterial agents” (Pfizer Inc., priority 2011, dated 2014)
Converted amounts (≈) assume the structure as drawn. Like-named read-outs stand apart in the source and are kept apart here.

What was measured:
[1] = biological target: T1, Pseudomonas aeruginosa LpxC enzyme (Pseudomonas aeruginosa, UniProt P47205); experiment: IC50 assay, LpxC enzyme from P. aeruginosa (PA LpxC enzyme IC50); format: biochemical; details: LpxC enzyme 0.1 nM, 25° C., 1 hour, read-out: PA:IC50
T1 construct: made in house; host or cells: E. coli
T1 sequence (P47205 1-303): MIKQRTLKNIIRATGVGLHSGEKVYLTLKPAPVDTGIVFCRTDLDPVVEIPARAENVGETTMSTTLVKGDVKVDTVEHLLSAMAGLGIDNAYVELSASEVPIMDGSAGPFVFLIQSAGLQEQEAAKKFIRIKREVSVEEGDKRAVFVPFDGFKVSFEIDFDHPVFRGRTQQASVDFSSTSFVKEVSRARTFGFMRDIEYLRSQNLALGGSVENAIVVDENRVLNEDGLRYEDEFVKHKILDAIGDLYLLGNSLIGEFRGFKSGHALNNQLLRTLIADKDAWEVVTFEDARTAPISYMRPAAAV
Procedure, shortened: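 IC50 values came from percent conversion, referenced to a no-enzyme control. Conversion was read by RapidFire HTMS mass spectrometry after HCl quench of the 1 h enzyme reaction.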

[2] = system: Acinetobacter baumannii/haemolyticus, multidrug-resistant clinical isolate (AB-3167); experiment: MIC determination, AB-3167; format: cell-based
Procedure, shortened: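 MIC read visually after overnight growth across 2-fold concentration steps in the CLSI dilution method against the multidrug-resistant clinical isolate. Duplicate determinations, lower value reported when within 2-fold, otherwise repeated; every run checked with control organisms and reference drugs.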

[3] = system: Escherichia coli EC-1: VOGEL, mouse virulent; experiment: MIC determination, EC-1; format: cell-based; details: Escherichia coli
Procedure, shortened: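 Duplicate runs differing by more than 2-fold were repeated, and otherwise the lower MIC was kept. The test organism was E. coli EC-1 (VOGEL, mouse virulent), incubated overnight across 2-fold compound dilutions following CLSI guidelines. The MIC was read visually as the lowest concentration inhibiting growth relative to drug-free control.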

[4] = system: Pseudomonas aeruginosa UI-18: wild-type (PA-7); experiment: MIC determination, PA-7; format: cell-based; details: Table 2, lower of duplicate values
Procedure: The in vitro antibacterial activity of compounds described in the Examples was evaluated by minimum inhibitory concentration (MIC) testing according to Clinical and Laboratory Standards Institute (CLSI). See: Clinical and Laboratory Standards Institute. Methods for Dilution Antimicrobial Susceptibility Tests for Bacteria that Grow Aerobically; Approved Standard-Eighth Edition. CLSI document M7-A8 [ISBN 1-56238-689-1]. Clinical and Laboratory Standards Institute, 940 West Valley Road, Suite 1400, Wayne, Pa. 19087-1898 USA, 2006; also Clinical and Laboratory Standards Institute. Performance Standards for Antimicrobial Susceptibility Testing; Twentieth Informational Supplement. CLSI document M100-S20 [ISBN 1-56238-716-2]. Clinical and Laboratory Standards Institute.
The MIC determination is a standard laboratory method for evaluating the antibacterial activity of a compound. The MIC represents the lowest drug concentration that inhibits visible growth of bacteria following overnight incubation. […] Typically, the drug concentration range is broken down into 2-fold increments (e.g. 0.06 μg/mL, 0.12 μg/mL. 0.25 μg/mL, 0.50 μg/mL, 1.0 μg/mL, etc.) and the various drug concentrations are all individually incubated overnight with approximately the same number of bacteria. The MIC is then determined by visually inspecting the drug effect at each concentration, and identifying the lowest drug concentration that has inhibited bacterial growth as compared to the drug free control. Typically, bacteria continue to grow at drug concentrations lower than the MIC and don't grow at concentrations at and above the MIC.
The MIC values described in Table 2 and 3 below were derived from assays wherein each test compound was evaluated in duplicate. In cases where the duplicate values varied by 0-2-fold, the lower of the two values was reported below. Generally speaking, if the duplicate values varied by more than 2-fold, the assay was considered non-valid and was repeated until the variation between duplicate runs was ≦2-fold. In line with the CLSI guidelines referred to above, both control organisms and reference compounds were utilized in each MIC assay to provide proper quality control. MIC values generated with these control organisms and reference compounds were required to fall within a defined range for the assay to be considered valid and be included herein. Those skilled in the art will recognize that MIC values can and do vary from experiment to experiment. Generally speaking, it should be recognized that MIC values often vary +/−2-fold from experiment to experiment. While a single MIC is reported for each compound and each microorganism, the reader should not conclude that each compound was only tested once. Several of the compounds were subjected to multiple tests. The data reported in Tables 2 and 3 is reflective of the compounds relative activity and different MICs may have been generated on these occasions in line with the guidelines described above.
The following bacterial strains were used in these MIC determinations:
1) Pseudomonas aeruginosa UI-18: Wild-type, labeled as PA-7 in Tables 2 and 3;

PA:UC12120 = experiment: MIC determination, PA:UC12120 (Table 3); format: cell-based, Pseudomonas aeruginosa; details: Pseudomonas aeruginosa, UC12120, Table 3, lower of duplicate values
Procedure, shortened: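 CLSI broth dilution MIC with 2-fold concentration steps, overnight incubation; MIC is the lowest concentration visibly inhibiting growth versus drug-free control. Run in duplicate, lower value reported when within 2-fold; control organisms and reference compounds required within defined ranges.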

[5] = Table 2, lower of duplicate values
[6] = read-out: EC-1 (MIC), Table 2, lower of duplicate values
[7] = Table 3, lower of duplicate values
[8] = read-out: EC-1 (MIC), Table 3, lower of duplicate values

| Compound | IC50 ([1]; Table 2) | MIC [2, 5] | MIC [3, 6] | MIC [4] | IC50 ([1]; Table 3) | MIC [2, 7] | MIC [3, 8] | MIC (PA:UC12120) |
| --- | --- | --- | --- | --- | --- | --- | --- | --- |
| Cc1cccc(-c2cc(=O)n(CC[C@](C)(C(=O)NO)S(C)(=O)=O)cc2F)c1 [Example 13, (2R)-4-[5-Fluoro-4-(3-methylphenyl)-2-oxopyridin-1(2H)-yl]-N-hydroxy-2-methyl-2-(methylsulfonyl)butanamide] | 1.05 nM | > 64 µg/mL | 1 µg/mL (≈ 2.52 µM) | 1 µg/mL (≈ 2.52 µM) | – | – | – | – |
| C[C@@](CCn1cc(F)c(-c2ccc3c(c2)OC(F)(F)O3)cc1=O)(C(=O)NO)S(C)(=O)=O [Example 47, (2R)-4-[4-(2,2-Difluoro-1,3-benzodioxol-5-yl)-5-fluoro-2-oxopyridin-1(2H)-yl]-N-hydroxy-2-methyl-2-(methylsulfonyl)butanamide] | – | > 64 µg/mL | 0.25 µg/mL (≈ 0.541 µM) | 0.5 µg/mL (≈ 1.08 µM) | – | – | – | – |
| C[C@@](CCn1cc(F)c(-c2ccc(F)cc2)cc1=O)(C(=O)NO)S(C)(=O)=O [Example 31, (2R)-4-[5-Fluoro-4-(4-fluorophenyl)-2-oxopyridin-1(2H)-yl]-N-hydroxy-2-methyl-2-(methylsulfonyl)butanamide] | 0.213 nM | > 64 µg/mL | 1 µg/mL (≈ 2.5 µM) | 0.5 µg/mL (≈ 1.25 µM) | – | – | – | – |
| COc1ccc(-c2cc(=O)n(CC[C@](C)(C(=O)NO)S(C)(=O)=O)cc2F)cc1F [Example 19, (2R)-4-[5-Fluoro-4-(3-fluoro-4-methoxyphenyl)-2-oxopyridin-1(2H)-yl]-N-hydroxy-2-methyl-2-(methylsulfonyl)butanamide] | 0.879 nM | > 64 µg/mL | 2 µg/mL (≈ 4.65 µM) | 1 µg/mL (≈ 2.32 µM) | – | – | – | – |
| COc1cnc(-c2ccc(-c3cc(=O)n(CC[C@](C)(C(=O)NO)S(C)(=O)=O)cc3F)cc2)nc1 [Example 21, (2R)-4-{5-Fluoro-4-[4-(5-methoxypyrimidin-2-yl)phenyl]-2-oxopyridin-1(2H)-yl}-N-hydroxy-2-methyl-2-(methylsulfonyl)butanamide] | 0.436 nM | > 64 µg/mL | 0.125 µg/mL (≈ 0.255 µM) | 1 µg/mL (≈ 2.04 µM) | – | – | – | – |
| [2H]C([2H])([2H])C([2H])([2H])Oc1ccc(-c2cc(=O)n(CC[C@](C)(C(=O)NO)S(C)(=O)=O)cc2F)cc1 [Example 45, (2R)-4-[4-(4-Pentadeuteroethoxyphenyl)-5-fluoro-2-oxopyridin-1(2H)-yl]-N-hydroxy-2-methyl-2-(methylsulfonyl)butanamide] | 0.547 nM | > 64 µg/mL | 0.125 µg/mL (≈ 0.29 µM) | 0.5 µg/mL (≈ 1.16 µM) | – | – | – | – |
| C[C@@](CCn1cc(F)c(-c2ccc(-c3ccon3)cc2)cc1=O)(C(=O)NO)S(C)(=O)=O [Example 41, (2R)-4-[5-Fluoro-4-(4-isoxazol-3-ylphenyl)-2-oxopyridin-1(2H)-yl]-N-hydroxy-2-methyl-2-(methylsulfonyl)butanamide] | 0.237 nM | 16 µg/mL (≈ 35.6 µM) | 0.5 µg/mL (≈ 1.11 µM) | 0.5 µg/mL (≈ 1.11 µM) | – | – | – | – |
| C[C@@](CCn1cc(F)c(-c2ccc3c(c2)CCCO3)cc1=O)(C(=O)NO)S(C)(=O)=O [Example 8, (2R)-4-[4-(3,4-Dihydro-2H-chromen-6-yl)-5-fluoro-2-oxopyridin-1(2H)-yl]-N-hydroxy-2-methyl-2-(methylsulfonyl)butanamide] | 0.377 nM | > 64 µg/mL | 0.5 µg/mL (≈ 1.14 µM) | 1 µg/mL (≈ 2.28 µM) | – | – | – | – |
| Cc1cc(-c2cc(=O)n(CC[C@](C)(C(=O)NO)S(C)(=O)=O)cc2F)ccc1F [Example 14, (2R)-4-[5-Fluoro-4-(4-fluoro-3-methylphenyl)-2-oxopyridin-1(2H)-yl]-N-hydroxy-2-methyl-2-(methylsulfonyl)butanamide] | 0.758 nM | > 64 µg/mL | 0.5 µg/mL (≈ 1.21 µM) | 0.5 µg/mL (≈ 1.21 µM) | – | – | – | – |
| C[C@@](CCn1cc(F)c(-c2ccc(-c3ncco3)cc2)cc1=O)(C(=O)NO)S(C)(=O)=O [Example 42, (2R)-4-[5-Fluoro-4-[4-(1,3-oxazol-2-yl)phenyl]-2-oxopyridin-1(2H)-yl]-N-hydroxy-2-methyl-2-(methylsulfonyl)butanamide] | 0.328 nM | > 64 µg/mL | 0.25 µg/mL (≈ 0.556 µM) | 1 µg/mL (≈ 2.22 µM) | – | – | – | – |
| COc1cccc(-c2cc(=O)n(CC[C@](C)(C(=O)NO)S(C)(=O)=O)cc2F)c1 [Example 25, (2R)-4-[5-Fluoro-4-(3-methoxyphenyl)-2-oxopyridin-1(2H)-yl]-N-hydroxy-2-methyl-2-(methylsulfonyl)butanamide] | 0.412 nM | > 64 µg/mL | 1 µg/mL (≈ 2.42 µM) | 2 µg/mL (≈ 4.85 µM) | – | – | – | – |
| Cc1cc(-c2cc(=O)n(CC[C@](C)(C(=O)NO)S(C)(=O)=O)cc2F)ccc1-n1nccn1 [Example 37, (2R)-4-{5-Fluoro-4-[3-methyl-4-(2H-1,2,3-triazol-2-yl)phenyl]-2-oxopyridin-1(2H)-yl}-N-hydroxy-2-methyl-2-(methylsulfonyl)butanamide] | – | > 64 µg/mL | 0.5 µg/mL (≈ 1.08 µM) | 1 µg/mL (≈ 2.16 µM) | – | – | – | – |
| CC(CCn1cc(F)c(-c2ccc3c(c2)CCO3)cc1=O)(C(=O)NO)S(C)(=O)=O (stereo not drawn) [Example 120, 4-[4-(2,3-dihydro-1-benzofuran-5-yl)-5-fluoro-2-oxopyridin-1(2H)-yl]-N-hydroxy-2-methyl-2-(methylsulfonyl)butanamide] | – | – | – | – | 0.9 nM | > 64 µg/mL | 2 µg/mL (≈ 4.71 µM) | 1 µg/mL (≈ 2.36 µM) |
| COc1ccc(-c2cc(=O)n(CCC(C)(C(=O)NO)S(C)(=O)=O)cc2F)cc1OC (stereo not drawn) [Example 98, 4-[4-(3,4-dimethoxyphenyl)-5-fluoro-2-oxopyridin-1(2H)-yl]-N-hydroxy-2-methyl-2-(methylsulfonyl)butanamide] | – | – | – | – | 28.5 nM | > 64 µg/mL | 64 µg/mL (≈ 145 µM) | 32 µg/mL (≈ 72.3 µM) |
| CC(CCn1cc(F)c(-c2ccccc2F)cc1=O)(C(=O)NO)S(C)(=O)=O (stereo not drawn) [Example 103, 4-[5-fluoro-4-(2-fluorophenyl)-2-oxopyridin-1(2H)-yl]-N-hydroxy-2-methyl-2-(methylsulfonyl)butanamide] | – | – | – | – | 1.4 nM | > 64 µg/mL | 4 µg/mL (≈ 9.99 µM) | 0.5 µg/mL (≈ 1.25 µM) |
| CN1Cc2ccc(-c3cc(=O)n(CCC(C)(C(=O)NO)S(C)(=O)=O)cc3F)cc2C1=O (stereo not drawn) [Example 57, 4-[5-fluoro-4-(2-methyl-3-oxo-2,3-dihydro-1H-isoindol-5-yl)-2-oxopyridin-1(2H)-yl]-N-hydroxy-2-methyl-2-(methylsulfonyl)butanamide] | – | – | – | – | 21 nM | > 64 µg/mL | > 64 µg/mL | > 64 µg/mL |
| CCOc1cccc(-c2cc(=O)n(CCC(C)(C(=O)NO)S(C)(=O)=O)cc2F)c1 (stereo not drawn) [Example 112, 4-[4-(3-ethoxyphenyl)-5-fluoro-2-oxopyridin-1(2H)-yl]-N-hydroxy-2-methyl-2-(methylsulfonyl)butanamide] | – | – | – | – | 3.1 nM | > 64 µg/mL | 2 µg/mL (≈ 4.69 µM) | 4 µg/mL (≈ 9.38 µM) |
